According to US9546179B2, “Heterocycle amido alkyloxy substituted quinazoline derivative and use thereof” (priority 2011, dated 2017):

Target: T1, receptor tyrosine kinase EGFR (Homo sapiens, UniProt P00533)
T1 construct: purchased Shanghai 3bio Technology Co., Ltd. Lot No. 4018780925
Test: Inhibitory effect on receptor tyrosine kinase EGFR (ELISA, Poly(Glu, Tyr)4:1, PY99 antibody)
Type: biochemical
Settings: ATP 4 μM, 1 hour at 37° C.
Method: Poly(Glu, Tyr)4:1 was diluted into 100 μg/ml by PBS without potassium. Enzyme label plate was coated with 37 μl/well at 37° C. overnight,
The liquid in the wells was removed. The plate was rinsed by T-PBS for 5 minutes, and dried at 37° C. after repeated 3 times.
The testing sample was diluted to the concentration concerned by reaction buffer solution, and added into the wells of the coated enzyme label plate. The concentration diluted should realize 1.0000 μg/ml, 0.1250 μg/ml, 0.0156 μg/ml, 0.00195 μg/ml and 0.00024 μg/ml in the 100 μl reaction.
Adding in ATP solution (4 μM of final concentration) diluted by reaction buffer solution,
Finally, the tyrosine kinase diluted by reaction buffer solution was added, and forming the reaction with 100 μl total volume.
Meanwhile, negative control wells and enzyme-free control wells were prepared. The reaction was kept in the dark wet box for 1 hour at 37° C. The plate was rinsed by T-PBS for three times after the reaction ended, and blocked by 1% BSA […] for 30 min, and then, PY99 antibody (1:1000 diluted by 0.05% PBST with 1% BSA) was added in 100 μl/well. After incubated at 37° C. for 30 minutes, the plate was rinsed by T-PBS for three times, and the goat anti-mouse IgG marked with HRP (1 mg/ml 1:1000 diluted by 0.05% PBST with 1% BSA) was then added in 100 μl/well. After incubated at 37° C. for 30 minutes, the plate was rinsed by T-PBS for three times.
Colorimetric solution OPD was added in 100 μl/well for 20 minutes' reaction in the dark side at the room temperature. Colorimetric substrate solution OPD was the solution of 0.1 mol/L citric acid-disodium hydrogen phosphate buffer (pH 5.0) with 20 mmol/L OPD and 12 mmol/L H2O2 (freshly prepared when using).
50 μl of 2M H2SO4 (2 mol/L sulfuric acid containing 0.1 mol/L sodium sulfate) was added in to terminate the reaction, and the A492 value was read with adjustable wavelength micro late enzyme-labeling instrument VERSAmax.
The inhibition rate of samples is calculated by the following formula: […]

T1 sequence (P00533 25-1210): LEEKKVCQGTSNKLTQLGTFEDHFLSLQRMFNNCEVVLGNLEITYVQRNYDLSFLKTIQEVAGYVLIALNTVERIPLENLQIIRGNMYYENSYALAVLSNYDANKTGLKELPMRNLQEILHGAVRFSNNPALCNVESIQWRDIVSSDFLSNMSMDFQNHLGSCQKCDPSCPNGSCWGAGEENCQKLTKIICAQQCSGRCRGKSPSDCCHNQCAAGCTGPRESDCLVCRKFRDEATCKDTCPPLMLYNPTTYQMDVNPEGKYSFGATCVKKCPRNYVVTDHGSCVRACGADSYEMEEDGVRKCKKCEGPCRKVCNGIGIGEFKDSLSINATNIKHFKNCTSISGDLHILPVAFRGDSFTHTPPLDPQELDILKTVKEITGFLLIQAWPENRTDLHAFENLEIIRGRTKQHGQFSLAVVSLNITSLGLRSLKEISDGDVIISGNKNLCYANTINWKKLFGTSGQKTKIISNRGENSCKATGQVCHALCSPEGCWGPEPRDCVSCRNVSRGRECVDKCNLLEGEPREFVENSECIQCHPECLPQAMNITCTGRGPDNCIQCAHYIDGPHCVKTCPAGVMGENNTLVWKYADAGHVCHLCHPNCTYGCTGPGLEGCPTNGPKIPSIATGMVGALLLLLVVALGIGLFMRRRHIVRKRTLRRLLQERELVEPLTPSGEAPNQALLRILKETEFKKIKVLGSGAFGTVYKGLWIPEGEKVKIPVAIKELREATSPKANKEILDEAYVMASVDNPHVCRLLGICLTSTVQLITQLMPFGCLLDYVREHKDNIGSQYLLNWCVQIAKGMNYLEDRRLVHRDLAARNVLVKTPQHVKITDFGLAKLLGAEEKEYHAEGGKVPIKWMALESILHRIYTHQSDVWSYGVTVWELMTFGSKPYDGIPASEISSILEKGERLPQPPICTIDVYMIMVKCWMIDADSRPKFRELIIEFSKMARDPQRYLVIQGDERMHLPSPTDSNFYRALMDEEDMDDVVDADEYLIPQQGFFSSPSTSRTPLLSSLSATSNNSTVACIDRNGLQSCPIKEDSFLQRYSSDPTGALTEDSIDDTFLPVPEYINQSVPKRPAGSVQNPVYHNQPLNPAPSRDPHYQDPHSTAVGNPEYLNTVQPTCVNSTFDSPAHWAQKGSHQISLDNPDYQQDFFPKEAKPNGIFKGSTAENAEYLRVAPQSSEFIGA

SMILES | IC50 [nM]
COc1cc2ncnc(Nc3ccc(F)c(Cl)c3)c2cc1OCCN1CCC2(CC1)CNC(=O)C2 [Example 63, 4-(3′-chloro-4′-fluorophenylamino)-6-[2-(2,8-diazaspiro[4.5]decane-3-ketone-8-yl)-oxethyl]-7-methoxyquinazoline] | 100 to 1000
C#Cc1cccc(Nc2ncnc3cc(OC)c(OCCCN4CCC5(CCOCC5)C4)cc23)c1 [Example 41, 4-(3′-ethynylphenylamino)-6-[3-(8-oxa-2-azaspiro[4.5]decane-2-yl)-propoxy]-7-methoxyquinazoline] | 100 to 1000
C#Cc1cccc(Nc2ncnc3cc(OC)c(OCCCN4CC5(CCOCC5)C4)cc23)c1 [Example 39, 4-(3′-ethynylphenylamino)-6-[3-(7-oxa-2-azaspiro[3.5]nonane-2-yl)-propoxy]-7-methoxyquinazoline] | 10 to 100
C#Cc1cccc(Nc2ncnc3cc(OC)c(OCCCN4CC5(CNC(=O)C5)C4)cc23)c1 [Example 45, 4-(3′-ethynylphenylamino)-6-[3-(2,6-diazaspiro[3.4]octane-7-ketone-2-yl)-propoxy]-7-methoxyquinazoline] | 10 to 100
C#Cc1cccc(Nc2ncnc3cc(OC)c(OCCCN4CC5(COC5)C4)cc23)c1 [Example 38, 4-(3′-ethynylphenylamino)-6-[3-(2-oxa-6-azaspiro[3.3]heptane-6-yl)-propoxy]-7-methoxyquinazoline] | 10 to 100
COc1cc2ncnc(Nc3ccc(F)c(Cl)c3)c2cc1OCCN1CC2(CCOCC2)C1 [Example 53, 4-(3′-chloro-4′-fluorophenylamino)-6-[3-(7-oxa-2-azaspiro[3.5]nonane-2-yl)-oxethyl]-7-methoxyquinazoline] | 10 to 100
COc1cc2ncnc(Nc3ccc(F)c(Cl)c3)c2cc1OCCN1CCC2(CCNC2=O)C1 (stereo not drawn) [Example 55, 4-(3′-chloro-4′-fluorophenylamino)-6-[2-(2,7-diazaspiro[4.4]-nonane-1-ketone-7-yl)-oxethyl]-7-methoxyquinazoline] | 100 to 1000
C#Cc1cccc(Nc2ncnc3cc(OC)c(OCCCN4CCC5(C4)CN(C)C(=O)O5)cc23)c1 (stereo not drawn) [Example 47, 4-(3′-ethynylphenylamino)-6-[3-(3-methyl-1-oxa-3,7-diazaspiro[4.4]nonane-2-ketone-7-yl)-propoxy]-7-methoxyquinazoline] | 10 to 100
COc1cc2ncnc(Nc3ccc(F)c(Cl)c3)c2cc1OCCCN1CCC2(CC1)CC(=O)N(C)C2 [Example 83, 4-(3′-chloro-4′-fluorophenylamino)-6-[3-(2-methyl-2,8-diazaspiro[4.5]decane-3-ketone-8-yl)-propoxy]-7-methoxyquinazoline] | 0.1 to 10
[2H]C([2H])([2H])Oc1cc2ncnc(Nc3ccc(F)c(Cl)c3)c2cc1OCCCN1CCC2(CC1)CNC(=O)O2 [Example 95, 4-(3′-chloro-4′-fluorophenylamino)-6-[3-(1-oxa-3,8-diazaspiro[4.5]decane-2-ketone-8-yl)-propoxy]-7-deuterated methoxyquinazoline] | 10 to 100
COc1cc2ncnc(Nc3ccc(F)c(Cl)c3)c2cc1OCCCN1CCC2(CC1)CCN(C)C2=O [Example 85] | 10 to 100
COc1cc2ncnc(Nc3cc(Cl)ccc3F)c2cc1OCCCN1CCC2(CC1)CNC(=O)C2 [Example 21, 4-(5′-chloro-2′-fluorophenylamino)-6-[3-(2,8-diazaspiro[4.5]decyl-3-ketone-8-yl)-propoxy]-7-methoxyquinazoline] | 10 to 100
COc1cc2ncnc(Nc3ccc(F)c(Cl)c3)c2cc1OCCN1CC[C@H]2OCC[C@H]21 (relative stereo) [Example 54] | > 1000
COc1cc2ncnc(Nc3cc(Cl)ccc3F)c2cc1OCCCN1CCC2(CCN(C)C2=O)C1 (stereo not drawn) [Example 23, 4-(5′-chloro-2′-fluorophenylamino)-6-[3-(2-methyl-2,7-diazaspiro[4.4]nonane-1-ketone-7-yl)-propoxy]-7-methoxyquinazoline] | 10 to 100
COc1cc2ncnc(Nc3ccc(F)c(Cl)c3)c2cc1OCCCN1CCC2(C1)CN(C)C(=O)O2 (stereo not drawn) [Example 89, 4-(3′-chloro-4′-fluorophenylamino)-6-[3-[3-methyl-1-oxa-3,7-diazaspiro[4.4]nonane-2-ketone-7-yl)-propoxy]-7-methoxyquinazoline] | 10 to 100
COc1cc2ncnc(Nc3cccc(Cl)c3F)c2cc1OCCCN1CCC2(CCN(C)C2=O)C1 (stereo not drawn) [Example 30, 4-(3′-chloro-2′-fluorophenylamino)-6-[3-(2-methyl-2,7-diazaspiro[4.4]nonane-1-ketone-7-yl)-propoxy]-7-methoxyquinazoline] | 10 to 100
COc1cc2ncnc(Nc3cc(Cl)ccc3F)c2cc1OCCCN1CCC2(CC1)CC(=O)N(C)C2 [Example 24, 4-(5′-chloro-2′-fluorophenylamino)-6-[3-(2-methyl-2,8-diazaspiro[4.5]decane-3-ketone-8-yl)-propoxy]-7-methoxyquinazoline] | 10 to 100
C#Cc1cccc(Nc2ncnc3cc(OC)c(OCCCN4CCC5(CCC(=O)N5)CC4)cc23)c1 [Example 74, 4-(3′-ethynylphenylamino)-6-[3-(1,8-diazaspiro[4.5]decane-2-ketone-8-yl)-propoxy]-7-methoxyquinazoline] | 10 to 100
C#Cc1cccc(Nc2ncnc3cc(OC)c(OCCCN4CCC5(CCOC5)C4)cc23)c1 (stereo not drawn) [Example 40, 4-(3′-ethynylphenylamino)-6-[3-(2-oxa-7-azaspiro[4.4]-nonane-7-yl)-propoxy]-7-methoxyquinazoline] | 10 to 100
COc1cc2ncnc(Nc3ccc(F)c(Cl)c3)c2cc1OCCCN1CCC2(CCCN(C(=O)OC(C)(C)C)C2)C1 (stereo not drawn) [Example 77, 4-(3′-chloro-4′-4-fluorophenylamino)-6-[3-(7-tertbutyloxycarbonyl-2,7-diazaspiro[4.5]decane-2-yl)-propoxy]-7-methoxyquinazoline] | > 1000
COc1cc2ncnc(Nc3cc(Cl)ccc3F)c2cc1OCCCN1CCC2(CCN(C)C2)C1 (stereo not drawn) [Example 64, 4-(5′-chloro-22′-fluorophenylamino)-6-[3-(7-methyl-2,7-diazaspiro[4.4]nonane-2-yl)-propoxy]-7-methoxyquinazoline] | 10 to 100
COc1cc2ncnc(Nc3cc(Cl)ccc3F)c2cc1OCCCN1CCC2(CC1)CCN(C)C2=O [Example 26, 4-(5′-chloro-2′-fluorophenylamino)-6-[3-(2-methyl-2,8-diazaspiro[4.5]decane-1-ketone-8-yl)-propoxy]-7-methoxyquinazoline] | 10 to 100
COc1cc2ncnc(Nc3ccc(F)c(Cl)c3)c2cc1OCCCN1CCC2(CC1)CNC(=O)C2 [Example 94, 4-(3′-chloro-4′-fluorophenylamino)-6-[3-(2,8-diazaspiro[4.5]decane-3-ketone-8-yl)-propoxy]-7-methoxyquinazoline] | 10 to 100
COc1cc2ncnc(Nc3cc(Cl)ccc3F)c2cc1OCCCN1CCC2(CCN(C(C)=O)C2)C1 (stereo not drawn) [Example 19, 4-(5′-chloro-2′-fluorophenylamino)-6-[3-(7-acetyl-2,7-diazaspiro[4.4]-nonane-2-yl)-propoxy]-7-methoxyquinazoline] | 10 to 100
COc1cc2ncnc(Nc3ccc(F)c(Cl)c3)c2cc1OCCCN1CC[C@H]2OCC[C@H]21 (relative stereo) [Example 78, 4-(3′-chloro-4′-fluorophenylamino)-6-[3-(cis-hexahydrofuro[3,2-b]pyrrole-4-yl)-propoxy]-7-methoxyquinazoline] | 10 to 100
COc1cc2ncnc(Nc3ccc(F)c(Cl)c3)c2cc1OCCCN1CC2(C1)CN(C)C(=O)O2 [Example 91, 4-(3′-chloro-4′-fluorophenylamino)-6-[3-(7-methyl-5-oxa-2,7-diazaspiro[3.4]octane-6-ketone-2-yl)-propoxy]-7-methoxyquinazoline] | 10 to 100
COc1cc2ncnc(Nc3cccc(Cl)c3F)c2cc1OCCCN1CCC2(CC1)CC(=O)N(C)C2 [Example 31, 4-(3′-chloro-2′-fluorophenylamino)-6-[3-(2-methyl-2,8-diazaspiro[4.5]decane-3-ketone-8-yl)-propoxy]-7-methoxyquinazoline] | 10 to 100
C#Cc1cccc(Nc2ncnc3cc(OC)c(OCCCN4CCC5(CC4)CCN(C)C5=O)cc23)c1 [Example 44, 4-(3′-ethynylphenylamino)-6-[3-(2-methyl-2,8-diazaspiro[4.5]decane-3-ketone-8-yl)propoxy]-7-methoxyquinazoline] | 10 to 100
COc1cc2ncnc(Nc3ccc(F)c(Cl)c3)c2cc1OCCN1CCC2(CC1)CC(=O)N(C)C2 [Example 56, 4-(3′-chloro-4′-fluorophenylamino)-6-[2-(2-methyl-2,8-diazaspiro[4.5]decane-2-ketone-8-yl)-oxethyl]-7-methoxyquinazoline] | > 1000
COc1cc2ncnc(Nc3cc(Cl)ccc3F)c2cc1OCCCN1CC2(COC2)C1 [Example 14, 4-(5′-chloro-2′-fluorophenylamino)-6-[3-(2-oxa-6-azaspiro[3.3]heptane-6-yl)-propoxy]-7-methoxyquinazoline] | 0.1 to 10
